Legend:
[1] = tested on: Oct-4 gene expression, HLFf; experiment: Small molecules, Oct-4 gene expression by qRT-PCR (Table III), HLFf; type: cell-based, human; conditions: dose 5 mM, Rx Time 5
[2] = tested on: stemness genes, primary human lung cells; experiment: Human Embryonic Taqman Low Density Array (TLDA) analysis of stemness genes in VPA-treated cells; type: cell-based; conditions: 5 mM VPA, three days
Protocol: (§1) Cell culture. Primary human lung cells were purchased from Cell Applications (San Diego, Calif.), and were maintained at 37° C. in 95% humidity and 5% CO2 in Dulbecco's modified eagle medium (DMEM, Hyclone) containing 10% fetal bovine serum (FBS, Hyclone) and 0.5% penicillin and streptomycin. Cells were grown in the presence of 1 mM VPA, 5 mM VPA or in the absence of VPA for three days.
Embryonic Taqman Low Density Array Analysis. Expression levels of several genes that contribute to a cell being pluripotentail (“stemness genes”) were determined using the Human Embryonic Taqman Low Density Array Analysis (TLDA). Several stemness genes were analyzed: GABRB3, LEFTB, NR6A1, PODXL, and PTEN. In addition, the expression level of the DNA methyl transferase DNMT3B was determined. The Applied Biosystems Human Embryonic TLDA, which contains 90 embryonic stem cell and developmental genes and 6 endogenous control genes, was used for quantitative real time RT-PCR to quantify relative expression levels (Applied Biosytems, Foster City, Calif.). Briefly, following reverse-transcription of RNA using the ABI High Capacity cDNA Reverse Transcription Kit (ABI; Foster City, Calif.), 150 ng sample cDNA in 50 μl nuclease-free water+50 μl ABI Universal Taqman 2×PCR Master Mix was pipetted into each port of the TLDA microfluidic card, and analyzed on the ABI 7900HT Fast Real Time PCR System. The ^ΔΔCT method was used to calculate relative quantities (fold change) in gene expression levels in treated cells relative to untreated control cells. The treated cells may also be compared to federally-approved human embryonic stem cells.

[3] = tested on: Oct-4 gene expression, HLFa; experiment: Small molecules, Oct-4 gene expression by qRT-PCR (Table III), HLFa; type: cell-based, human; conditions: dose 5 mM, Rx Time 5
[4] = tested on: Oct-4 expression, primary human lung cells; experiment: Quantitative RT-PCR of Oct-4 in primary human lung cells grown with VPA; type: cell-based; conditions: 5 mM VPA, three days, p<0.01
Protocol: as §1
Quantitative RT-PCR. Expression of Oct-4 and Nanog were determined by real-time RT-PCR for each culture condition (0 mM VPA, 1 mM VPA, and 5 mM VPA). Briefly, total RNA was prepared from cultures using Trizol Reagent (Life Technologies, Gaithersburg, Md.) and RNeasy Mini kit (Qiagen; Valencia, Calif.) with DNase I digestion according to manufacturer's protocol. Total RNA (1 μg) from each sample was subjected to oligo(dT)-primed reverse transcription (Invitrogen; Carlsbad, Calif.). Real-time PCR reactions will be performed with PCR master mix on a 7300 real-time PCR system (Applied Biosystems; Foster City, Calif.). For each sample, 1 μl of diluted cDNA (1:10) will be added as template in PCR reactions. The expression level of Oct-4 and Nanog was normalized to GAPD.

[5] = tested on: HDAC and DNMT1 gene expression, BJ dermal fibroblasts; experiment: VPA effect on HDAC and DNMT1 gene expression in BJ dermal fibroblasts (FIG. 18); type: cell-based, human; conditions: 500 μM VPA, 7 days, BJFs; HDAC1 p<0.01, SIRT4 p 0.05, DNMT1 p<0.005
Protocol: FIG. 18 is a bar graph reporting the effects of VPA (500 μM) on HDAC and DNMT1 gene expression in BJ dermal fibroblasts (obtained from ATCC).
FIG. 18 reports the effects of 500 μM VPA on HDAC and DNMT1 gene expression in BJFs. Cells were exposed to VPA for 7 days. […] Statistical significance was as follows: HDAC1 (p<0.01); SIRT4 (p, 0.05) and DNMT1 (p<0.005).

[6] = tested on: Sox-2 and Nanog gene expression, human dermal fibroblasts; experiment: VPA effect on Sox-2 and Nanog gene expression in human dermal fibroblasts (FIG. 17); type: cell-based; conditions: VPA 5 mM, 4-6 days, multiple dermal fibroblast cell types
Protocol: FIG. 17 is a bar graph reporting the effects of VPA (5 mM) on gene expression of Oct-4, Sox-2 and Nanog in human dermal fibroblasts. Significance relative to control within each cell type: *p<0.05; **p<0.03; and ***p<0.01.
Quantitative RT-PCR. Expression of Oct-4 was determined by real-time RT-PCR. Briefly, total RNA was prepared from cultures using Trizol Reagent (Life Technologies, Gaithersburg, Md.) and RNeasy Mini kit (Qiagen; Valencia, Calif.) with DNase I digestion according to manufacturer's protocol. Total RNA (1 μg) from each sample was subjected to oligo(dT)-primed reverse transcription (Invitrogen; Carlsbad, Calif.). Real-time PCR reactions will be performed with PCR master mix on a 7300 real-time PCR system (Applied Biosystems; Foster City, Calif.). For each sample, 1 μl of diluted cDNA (1:10) will be added as template in PCR reactions. The expression level of Cot-4 was normalized to glyceraldehyde 3-phosphate-dehydrogenase (GAPD).
Pluripotency gene expression was increased in multiple dermal fibroblast cell types following exposure to VPA for 4-6 days. mRNA levels were determined by real time qRT-PCR and normalized with GAPDH.

[7] = tested on: first exon of the Oct-4 gene; experiment: Bisulfite sequencing of the Oct-4 promoter/first exon; type: cell-based; conditions: VPA-treated primary human lung cells
Protocol: as §1
Bisulfite Sequencing. Bisulfite sequencing is the use of bisulfite treatment of DNA to determine the pattern of methylation. Bisulfite sequencing is based on the fact that treatment of DNA with bisulfite converts cytosine residues to uracil, but leaves 5-methylcytosine residues unaffected. Bisulfite treatment thus introduces specific changes in the DNA sequence that depend on the methylation status of individual cytosine residues, yielding very high-resolution information about the methylation status of a segment of DNA.
Methylation of pluripotent gene promoters was analyzed by bisulfite sequencing. Briefly, DNA was purified by phenolchloroform-isoamylalcohol extraction. Bisulfite conversion was performed using the EZ DNA Methylation kit following the manufacturer's protocol (Zymo Research; Orange, Calif.). The conversion rate of all cytosines in non-CpG dinucleotides to uracils was 100%. Converted DNA was amplified by PCR using primers for human Oct3/4, Nanog, and SOX2. […]

CCCC(CCC)C(=O)O [VPA, valproic acid] was tested, and the “Oct4 FC” value [1] was 5, the “expression of DNA methyltransferase DNMT3B” value [2] was “down-regulated” and the “stemness-related genes not detected in control cells (FOXD3, NR5A2, TERT, LIFR, SFRP2, TFCP2L1, LIN28, SOX2, XIST)” value [2] was “induced”. For the same compound, the “expression of stemness genes GABRB3, LEFTB, NR6A1, PODXL, PTEN” value ([2]; n=three replicates) was “up-regulation”, the “Oct4 FC” value [3] was 4 and the “expression of Oct4 up-regulated compared to control cells” value [4] was about 2.7 fold. The “HDAC1, SIRT4 and DNMT1 gene expression compared to control cells” value [5] was “significantly u-regulated”, the “expression of Sox-2 and Nanog” value [6] was “increase in expression” and the “methylation of cytosines in the first exon of Oct-4” value [7] was “demethylation of two cytosines”.

From patent US20110059526A1, “REPROGRAMMING A CELL BY INDUCING A PLURIPOTENT GENE THROUGH USE OF AN HDAC MODULATOR” (NUPOTENTIAL, INC., priority 2008, published 2011)
